Test results taken from paper PMC12686490 (Nature Communications, 2025).
Numbered stars: 1 amine (or outer) side, 2 acyl side, 3 side chain; on linkers, the order of the positions; unused ones are H or OH. Bridge positions count the residues as written; N and C are the ends. Square brackets hold non-standard residues; d marks the D form. Peptide text beside a SMILES is read from it. X1 = O=C(C1(O)C[C@H](O)[C@@H](N[*:1])[C@H]([C@H](O)[C@H](O)CO)O1)[*:2]; X2 = CC(=O)NC(C(=O)OC(C(C)C)C(N[*:1])C(=O)[*:2])C(O)C(C)C; NMeW = CN[C@@H](Cc1c[nH]c2ccccc12)C(=O)O; Phe(3-Br) = N[C@@H](Cc1cccc(Br)c1)C(=O)O; PhLac = O=C(O)[CH](O)Cc1ccccc1; NMeT = CN[CH](C(=O)O)[CH](C)O; Nle = CCCC[C@H](N)C(=O)O; NMeA = CN[CH](C)C(=O)O; NMeDha = C=C(NC)C(=O)O

What was measured:
[1] = tested on: CCKBR-LTP in the auditory cortex; assay: MEA recording, TBS-induced CCKBR-LTP in auditory cortex slices of C57 mice; set-up: species or system mouse; settings: for Effect on TBS-induced CCKBR-LTP: one-hour preincubation: 100 nM YF476, 10 μM U-73122, 50 μM 2-APB, 20 μM YM254890, 100 μM barbadin, 10 μM H-89, 300 ng PTX injected into AC 24-48 h before
[2] = tested on: CCKBR-LTP in the auditory cortex; assay: MEA recording, drug plus LFS-induced LTP in auditory cortex slices; set-up: species or system mouse; settings: 200 nM, 10 min, AC slices of C57 mice
GPR173 / β-arrestin2 = GPR173 / β-arrestin2 (Homo sapiens, UniProt Q9NS66); assay: BRET-based β-arrestin2 assay, 293T-GPR173 cells; format: cell-based; settings: up to 10 μM
Sequence of GPR173 / β-arrestin2 (Q9NS66 whole entry): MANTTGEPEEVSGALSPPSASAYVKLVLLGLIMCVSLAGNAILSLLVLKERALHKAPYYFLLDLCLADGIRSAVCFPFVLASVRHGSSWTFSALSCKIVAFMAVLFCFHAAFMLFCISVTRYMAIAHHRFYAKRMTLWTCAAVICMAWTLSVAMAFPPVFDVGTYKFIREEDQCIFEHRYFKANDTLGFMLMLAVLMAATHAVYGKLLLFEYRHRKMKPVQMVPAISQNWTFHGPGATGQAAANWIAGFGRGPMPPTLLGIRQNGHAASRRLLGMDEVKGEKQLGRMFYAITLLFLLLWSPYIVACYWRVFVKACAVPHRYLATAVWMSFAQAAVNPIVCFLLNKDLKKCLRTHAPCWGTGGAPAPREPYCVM

GPR173 / β-arrestin1 = GPR173 / β-arrestin1 (Homo sapiens, UniProt Q9NS66); assay: BRET-based β-arrestin1 assay, 293T-GPR173 cells; format: cell-based; settings: up to 10 μM
Sequence of GPR173 / β-arrestin1 (Q9NS66 whole entry): as above

CCKBR [3] = target: T1, CCKBR (Homo sapiens, UniProt P32239); assay: Calcium mobilization assay; format: cell-based; settings: screening
T1 sequence (P32239 1-447): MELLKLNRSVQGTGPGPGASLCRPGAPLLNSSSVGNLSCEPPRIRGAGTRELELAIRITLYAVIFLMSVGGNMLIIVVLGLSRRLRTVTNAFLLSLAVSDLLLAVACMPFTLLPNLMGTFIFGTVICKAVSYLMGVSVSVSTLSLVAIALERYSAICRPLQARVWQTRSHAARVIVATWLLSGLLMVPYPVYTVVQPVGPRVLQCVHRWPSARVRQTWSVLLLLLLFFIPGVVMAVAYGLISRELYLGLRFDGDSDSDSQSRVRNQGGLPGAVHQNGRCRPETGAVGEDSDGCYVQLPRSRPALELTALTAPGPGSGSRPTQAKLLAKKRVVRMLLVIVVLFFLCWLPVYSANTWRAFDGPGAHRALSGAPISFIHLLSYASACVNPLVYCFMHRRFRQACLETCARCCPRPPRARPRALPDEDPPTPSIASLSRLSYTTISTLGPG

CCKBR [4] = target: T1, CCKBR; assay: PRESTO-Tango assay; format: cell-based; settings: screening

Row | SMILES | Effect on TBS-induced CCKBR-LTP [1] | also measured
1 | NCCOB(c1ccccc1)c1ccccc1 [2-APB] | significantly and almost completely inhibited | –
2 | CSCC[C@H](NC(=O)[C@H](Cc1ccc(OS(=O)(=O)O)cc1)NC(=O)[C@@H](N)CC(=O)O)C(=O)NCC(=O)N[C@@H](Cc1c[nH]c2ccccc12)C(=O)N[C@@H](CCSC)C(=O)N[C@@H](CC(=O)O)C(=O)N[C@@H](Cc1ccccc1)C(N)=O [CCK8s] | – | LTP induction by drug with LFS (fEPSP amplitude) [2]: induced LTP; Activation of β-arrestin2 downstream of GPR173 (GPR173 / β-arrestin2): could activate; Activation of β-arrestin1 downstream of GPR173 (GPR173 / β-arrestin1): could activate
3 | O=S(=O)(NCCNC/C=C/c1ccc(Br)cc1)c1cccc2cnccc12 [H-89] | partially inhibited | –
4 | CCCC[C@H](NC(=O)[C@H](Cc1c[nH]c2ccccc12)N(C)C(=O)C1(O)C[C@H](O)[C@@H](NC(C)=O)[C@H]([C@H](O)[C@H](O)CO)O1)C(=O)N[C@@H](CC(=O)O)C(=O)N[C@@H](Cc1cccc(Br)c1)C(N)=O (stereo partly drawn) [MF-7] (Ac-[X1][NMeW][Nle]D[Phe(3-Br)]-NH2) | – | Activation of Gαq/11-Ca2+ signaling (CCKBR [3]): performed poorly; Induction of β-arrestin2 signaling (CCKBR [4]): highly potent
5 | COc1ccc2c(c1)CC[C@@H]1[C@@H]2CC[C@]2(C)[C@@H](NCCCCCCN3C(=O)C=CC3=O)CC[C@@H]12 [U-73122] | significantly and almost completely inhibited | –
6 | CNc1cccc(NC(=O)N[C@@H]2N=C(c3ccccn3)c3ccccc3N(CC(=O)C(C)(C)C)C2=O)c1 [YF476] | confirmed that the LTP was CCKBR-dependent | –
7 | C=C1C(=O)NC(C)C(=O)N(C)C(C)C(=O)NC(C(OC(=O)C(NC(C)=O)C(O)C(C)C)C(C)C)C(=O)N(C)C(C(C)OC)C(=O)OC(C)C(NC(C)=O)C(=O)OC(Cc2ccccc2)C(=O)N1C (stereo not drawn) [YM254890] (Ac-T[PhLac][NMeDha]A[NMeA][X2][NMeT](Me); ester 1-C; configuration not given here) | significantly and almost completely inhibited | –
8 | Nn1cnc2scc(-c3ccc(Cc4ccccc4)cc3)c2c1=O [barbadin] | could not inhibit | Effect on the inhibition of TBS-induced LTP by MF-8 ([1]; 2-h preincubation of barbadin + 200 nM MF-8): could indeed eliminate the inhibitory effect of MF-8
